Experimental findings from patent publication US7041698B2, “Hepatitis C virus inhibitors” (Bristol-Myers Squibb Company, priority 2002, dated 2006) are described below.

Each structure is given as a SMILES string. pIC50: −log10 of the molar value.

The first assay deals with T1, HCV NS3/4A protease complex (UniProt P27958, C1454S/C1711G, species not given).
T1 construct: fused on or other part: Three-lysine solubilising tail at the C-terminus of NS4A
In words: Recombinant HCV NS3/4A protease complex FRET peptide assay (strain not stated). It counts as biochemical. As to conditions: HCV NS3/4A protease enzyme assay, read-out: IC50 range. From the text: Recombinant HCV NS3/4A Protease Complex FRET Peptide Assay
The purpose of this in vitro assay was to measure the inhibition of HCV NS3 protease complexes, derived from the BMS, H77C or J416S strains, as described below, by compounds of the present invention. This assay provides an indication of how effective compounds of the present invention would be in inhibiting HCV proteolytic activity.
Serum from an HCV-infected patient was obtained from Dr. T. Wright, San Francisco Hospital. An engineered full-length cDNA (compliment deoxyribonucleic acid) template of the HCV genome (BMS strain) was constructed from DNA fragments obtained by reverse transcription-PCR (RT-PCR) of serum RNA (ribonucleic acid) and using primers selected on the basis of homology between other genotype 1a strains. From the determination of the entire genome sequence, a genotype 1a was assigned to the HCV isolate according to the classification of Simmonds et al. (See P Simmonds, K A Rose, S Graham, S W Chan, F McOmish, B C Dow, E A Follett, P L Yap and H Marsden, J. Clin. Microbiol., 31(6), 1493–1503 (1993)). […] The infectious clones, H77C (1a genotype) and J4L6S (1b genotype) were obtained from R. Purcell (NIH) and the sequences are published in Genbank (AAB67036, see Yanagi, M., Purcell, R. H., Emerson, S. U. and Bukh, J. Proc. Natl. Acad. Sci. U.S.A. 94(16),8738–8743 (1997); AF054247, see Yanagi, M., St Claire, M., Shapiro, M., Emerson, S. U., Purcell, R. H. and Bukh, J, Virology 244 (1), 161–172. (1998)).
The BMS, H77C and J4L6S strains were used for production of recombinant NS3/4A protease complexes. DNA encoding the recombinant HCV NS3/4A protease complex (amino acids 1027 to 1711) for these strains were manipulated as described by P. Gallinari et al. (see Gallinari P, Paolini C, Brennan D, Nardi C, Steinkuhler C, De Francesco R. Biochemistry. 38(17):5620–32, (1999)). Briefly, a three-lysine solubilizing tail was added at the 3′-end of the NS4A coding region. The cysteine in the P1 position of the NS4A-NS4B cleavage site (amino acid 1711) was changed to a glycine to avoid the proteolytic cleavage of the lysine tag. Furthermore, a cysteine to serine mutation was introduced by PCR at amino acid position 1454 to prevent the autolytic cleavage in the NS3 helicase domain. The variant DNA fragment was cloned in the pET21b bacterial expression vector (Novagen) and the NS3/4A complex was expressed in Escherichia. coli strain BL21 (DE3) (Invitrogen) following the protocol described by P. Gallinari et al. (see Gallinari P, Brennan D, Nardi C, Brunetti M, Tomei L, Steinkuhler C, De Francesco R., J. Virol. 72(8):6758–69 (1998)) with modifications. Briefly, NS3/4A expression was induced with 0.5 mM Isopropyl β-D-1-thiogalactopyranoside (IPTG) for 22 hr at 20° C. A typical fermentation (10L) yielded approximately 80 g of wet cell paste. The cells were resuspended in lysis buffer (10 mL/g) consisting of 25 mM N-(2-Hydroxyethyl)Piperazine-N′-(2-Ethane Sulfonic acid) (HEPES), pH7.5, 20% glycerol, 500 mM Sodium Chloride (NaCl), 0.5% Triton-X100, 1 ug/ml lysozyme, 5 mM Magnesium Chloride (MgCl2), lug/ml Dnasel, 5 mM β-Mercaptoethanol (βME), Protease inhibitor—Ethylenediamine Tetraacetic acid (EDTA) free (Roche), homogenized and incubated for 20 mins at 4° C. The homogenate was sonicated and clarified by ultra-centrifugation at 235000 g for 1 hr at 4° C. Imidazole was added to the supernatant to a final concentration of 15 mM and the pH adjusted to 8.0. The crude protein extract was loaded on a Nickel-Nitrilotriacetic acid (Ni-NTA) column pre-equilibrated with buffer B (25 mM HEPES, pH 8.0, 20% glycerol, 500 mM NaCl, 0.5% Triton-X100, 15 mM imidazole, 5 mM βME). The sample was loaded at a flow rate of 1 mL/min. The column was washed with 15 column volumes of buffer C (same as buffer B except with 0.2% Triton-X100). The protein was eluted with 5 column volumes of buffer D (same as buffer C except with 200 mM Imidazole). […]
As to `C=CC1C[C@]1(NC(=O)[C@@H]1C[C@@H](OC(=O)Nc2c(CC)cccc2C(C)C)CN1C(=O)[C@@H](NC(=O)OC(C)(C)C)C(C)(C)C)C(=O)NS(=O)(=O)C1CC1` (stereo partly drawn) [Compound 22, BocNH-P3(t-BuGly)-P2(Hyp(O—CO(NH—(2-ethyl-6-isopropyl-phenyl))))-P1(1R,2S VinylAcca)—CONHSO2Cyclopropane], the pIC50 was 5.00 to 6.00. `C=CC1C[C@]1(NC(=O)[C@@H]1C[C@@H](OC(=O)Nc2c(C)cccc2C)CN1C(=O)[C@@H](NC(=O)OC(C)(C)C)C(C)(C)C)C(=O)NS(=O)(=O)C1CC1` (stereo partly drawn) [Compound 58, BocNH-P3(t-BuGly)-P2(Hyp(O—CO(NH—(2,6-dimethyl-phenyl))))-P1(1R,2S VinylAcca)—CONHSO2Cyclopropane]: the pIC50 was 5.00 to 6.00. Still for that read-out and setting: to `C=CC1C[C@]1(NC(=O)[C@@H]1C[C@@H](OC(=O)Nc2c(C)cccc2CC)CN1C(=O)[C@@H](NC(=O)OC(C)(C)C)C(C)(C)C)C(=O)NS(=O)(=O)C1CC1` (stereo partly drawn) [Compound 61, BocNH-P3(t-BuGly)-P2(Hyp(O—CO(NH—(2-ethyl-6-methyl))))-P1(1R,2S VinylAcca)—CONHSO2Cyclopropane] belongs 5.00 to 6.00; to `C=CC1C[C@]1(NC(=O)[C@@H]1C[C@@H](OC(=O)Nc2c(C)nn(C)c2C)CN1C(=O)[C@@H](NC(=O)OC(C)(C)C)C(C)(C)C)C(=O)NS(=O)(=O)C1CC1` (stereo partly drawn) [Compound 68, BocNH-P3(t-BuGly)-P2(Hyp(O—CO(NH—(1,3,5-Trimethyl-pyrazol-4-yl))))-P1(1R,2S VinylAcca)—CONHSO2Cyclopropane], 5.00 to 6.00. On to `C=CC1CC1(NC(=O)[C@@H]1C[C@@H](OC(=O)Nc2c(F)cccc2F)CN1C(=O)[C@@H](NC(=O)OC(C)(C)C)C(C)(C)C)C(=O)O` (stereo partly drawn) [Compound 102, BocNH-P3(t-BuGly)-P2(Hyp(O—CO(NH—(2,6-difluoro-phenyl))))-P1((1R,2S)/(1S,2R) VinylAcca)—CO2H], for which the pIC50 is less than 5.00. Still for that read-out and setting: to `C=CC1CC1(NC(=O)[C@@H]1C[C@@H](OC(=O)NCc2ccccc2C)CN1C(=O)[C@@H](NC(=O)OC(C)(C)C)C(C)(C)C)C(=O)O` (stereo partly drawn) [Compound 103, BocNH-P3(t-BuGly)-P2(Hyp(O—CO(NH—(2-methyl-benzyl))))-P1((1R,2S)/(1S,2R) VinylAcca)—CO2H] belongs less than 5.00. Same read-out and setting: to `C=CC1CC1(NC(=O)[C@@H]1C[C@@H](OC(=O)N[C@H](C(=O)OC)[C@@H](C)CC)CN1C(=O)[C@@H](NC(=O)OC(C)(C)C)C(C)(C)C)C(=O)O` (stereo partly drawn) [Compound 104, BocNH-P3(t-BuGly)-P2(Hyp(O—CO(NH-2-[(2S,3S)-3-methylvaleric acid methyl ester])))-P1((1R,2S)/(1S,2R) VinylAcca)—CO2H] belongs 5.00 to 6.00; to `C=CC1CC1(NC(=O)[C@@H]1C[C@@H](OC(=O)NC(C)c2cccc3ccccc23)CN1C(=O)[C@@H](NC(=O)OC(C)(C)C)C(C)(C)C)C(=O)O` (stereo partly drawn) [Compound 105, BocNH-P3(t-BuGly)-P2(Hyp(O—CO(NH-1-(R)-1-naphthylethyl)))-P1((1R,2S)/(1S,2R) VinylAcca)—CO2H], less than 5.00; to `C=CC1CC1(NC(=O)[C@@H]1C[C@@H](OC(=O)Nc2ccccc2)CN1C(=O)[C@@H](NC(=O)OC(C)(C)C)C(C)(C)C)C(=O)O` (stereo partly drawn) [Compound 106, BocNH-P3(t-BuGly)-P2(Hyp(O—CO(NH-phenyl)))-P1((1R,2S)/(1S,2R) VinylAcca)—CO2H], less than 5.00. `C=CC1CC1(NC(=O)[C@@H]1C[C@@H](OC(=O)Nc2cc(C)ccc2F)CN1C(=O)[C@@H](NC(=O)OC(C)(C)C)C(C)(C)C)C(=O)O` (stereo partly shown) [Compound 107]: the pIC50 was less than 5.00. For the compound `C=CC1CC1(NC(=O)[C@@H]1C[C@@H](OC(=O)NCCc2cccs2)CN1C(=O)[C@@H](NC(=O)OC(C)(C)C)C(C)(C)C)C(=O)O` (stereo partly drawn) [Compound 108, BocNH-P3(t-BuGly)-P2(Hyp(O—CO(NH—(2-thiophen-2-yl-ethyl))))-P1((1R,2S)/(1S,2R) VinylAcca)—CO2H], the pIC50 was less than 5.00. As to `C=CC1CC1(NC(=O)[C@@H]1C[C@@H](OC(=O)Nc2cccc(C(F)(F)F)c2)CN1C(=O)[C@@H](NC(=O)OC(C)(C)C)C(C)(C)C)C(=O)O` (stereo partly drawn) [Compound 109, BocNH-P3(t-BuGly)-P2(Hyp(O—CO(NH—(3-trifluoromethyl-phenyl))))-P1((1R,2S)/(1S,2R) VinylAcca)—CO2H], the pIC50 is less than 5.00.

Staying with this assay, now noted: read-out: IC50 range, HCV NS3/4A protease enzyme assay.
Regarding `C=CC1C[C@]1(NC(=O)[C@@H]1C[C@@H](OC(=O)Nc2c(CC)cccc2CC)CN1C(=O)[C@@H](NC(=O)OC(C)(C)C)C(C)(C)C)C(=O)NS(=O)(=O)C1CC1` (stereo partly drawn) [Compound 62, BocNH-P3(t-BuGly)-P2(Hyp(O—CO(NH—(2,6-diethyl-phenyl))))-P1(1R,2S VinylAcca)—CONHSO2Cyclopropane], the pIC50 was 5.00 to 6.00.
